These compounds were tested against T1, Beta-secretase 1 (Homo sapiens, UniProt P56817) (assay: Inhibition of human Beta-secretase 1).
T1 sequence (P56817 whole entry): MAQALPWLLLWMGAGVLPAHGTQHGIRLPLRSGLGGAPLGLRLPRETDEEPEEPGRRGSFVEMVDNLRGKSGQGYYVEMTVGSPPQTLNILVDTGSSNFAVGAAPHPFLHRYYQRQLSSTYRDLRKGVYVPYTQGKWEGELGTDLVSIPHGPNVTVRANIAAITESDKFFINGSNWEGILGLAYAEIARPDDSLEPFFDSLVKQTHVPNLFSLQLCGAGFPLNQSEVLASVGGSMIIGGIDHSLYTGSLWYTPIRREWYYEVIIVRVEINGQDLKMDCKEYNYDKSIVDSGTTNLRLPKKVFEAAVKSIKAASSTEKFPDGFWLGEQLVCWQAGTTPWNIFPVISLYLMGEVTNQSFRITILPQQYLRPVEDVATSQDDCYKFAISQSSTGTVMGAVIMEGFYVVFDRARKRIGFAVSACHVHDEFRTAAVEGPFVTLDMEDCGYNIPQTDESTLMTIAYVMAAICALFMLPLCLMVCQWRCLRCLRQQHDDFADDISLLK

Structure (SMILES)	IC50 [µM]
Oc1cc(O)c2c(c1)O[C@@H](c1cc(O)c(O)c(O)c1)[C@@H](O)C2	2.4
O=C(O[C@H]1Cc2c(O)cc(O)cc2O[C@H]1c1ccc(O)c(O)c1)c1cc(O)c(O)c(O)c1	4.5
O=C(OC[C@@H]1O[C@H](OC(=O)c2cc(O)c(O)c(O)c2)[C@@H](OC(=O)c2cc(O)c(O)c(O)c2)[C@H](OC(=O)c2cc(O)c(O)c(O)c2)[C@H]1OC(=O)c1cc(O)c(O)c(O)c1)c1cc(O)c(O)c(O)c1	> 160
O=C(O[C@@H]1Cc2c(O)cc(O)cc2O[C@H]1c1ccc(O)c(O)c1)c1cc(O)c(O)c(O)c1 [(-)-CATECHINGALLATE]	6
O=C(O[C@@H]1O[C@@H]2COC(=O)c3cc(O)c(O)c(O)c3-c3c(cc(O)c(O)c3O)C(=O)OO[C@H]([C@H]1O)[C@@H]2O)c1cc(O)c(O)c(O)c1	> 160
Oc1cc(O)c2c(c1)O[C@H](c1cc(O)c(O)c(O)c1)[C@@H](O)C2 [GALLOCATECHIN]	2.5

These compounds were tested against T1, Beta-secretase 1 (assay: Inhibitory activity against recombinant human Beta-secretase 1).

Ki [µM]	Structure (SMILES)
5.3	O=C(O[C@H]1Cc2c(O)cc(O)cc2O[C@H]1c1ccc(O)c(O)c1)c1cc(O)c(O)c(O)c1
